Reference: patent US7767665B2, “1,3-benzothiazinone derivatives and use thereof” (Takeda Pharmaceutical Company Limited, priority 2001, dated 2010)

| SMILES | melting point |
| --- | --- |
| O=C(c1ccc2c(=O)nc(-c3ccccn3)sc2c1)N1CCOCC1 [Example 240, 7-(4-Morpholinocarbonyl)-2-(2-pyridyl)-4H-1,3-benzothiazine-4-one] | 217.6 to 218.8 °C |
| O=c1nc(-c2ccccn2)sc2cc(Br)ccc12 [Example 241, 7-Bromo-2-(2-pyridyl)-4H-1,3-benzothiazine-4-one] | 230.7 to 232.2 °C |
| N#Cc1cccc(-c2nc(=O)c3ccccc3s2)n1 [Example 242, 6-(4-Oxo-4H-1,3-benzothiazin-2-yl)-s-pyridinecarbonitrile] | 263.7 to 264.2 °C |
| O=c1nc(-c2cccc(CP(=O)(O)O)n2)sc2ccccc12 [Example 244] | 254 °C (dec.) |
| O=c1nc(-c2cccc(CCP(=O)(O)O)n2)sc2ccccc12 [Example 246] | 235.3 to 237.2 °C |
| CCSCc1cccc(-c2nc(=O)c3ccccc3s2)n1 [Example 249, 2-[6-[(Ethylthio)methyl]-2-pyridyl]-4H-1,3-benzothiazine-4-one] | 142 to 143.5 °C |
| CC[S+]([O-])Cc1cccc(-c2nc(=O)c3ccccc3s2)n1 (centres unmarked) [Example 250, 2-[6-[(Ethylsulfinyl)methyl]-2-pyridyl]-4H-1,3-benzothiazine-4-one] | 188.5 to 190 °C |
| CCS(=O)(=O)Cc1cccc(-c2nc(=O)c3ccccc3s2)n1 [Example 251, 2-[6-[(Ethylsulfonyl)methyl]-2-pyridyl]-4H-1,3-benzothiazine-4-one] | 188.5 to 190 °C |
| CCC[S+]([O-])Cc1cccc(-c2nc(=O)c3ccccc3s2)n1 (centres unmarked) [Example 253] | 171 to 173 °C |
| CCCS(=O)(=O)Cc1cccc(-c2nc(=O)c3ccccc3s2)n1 [Example 254, 2-[6-[(n-Propylsulfonyl)methyl]-2-pyridyl]-4H-1,3-benzothiazine-4-one] | 177 to 179 °C |
| O=c1nc(-c2cccc(CSCc3ccccc3)n2)sc2ccccc12 [Example 255, 2-[6-[(Benzylthio)methyl]-2-pyridyl]-4H-1,3-benzothiazine-4-one] | 126 to 128 °C |
| O=c1nc(-c2cccc(C[S+]([O-])Cc3ccccc3)n2)sc2ccccc12 (centres unmarked) [Example 256, 2-[6-[(Benzylsulfinyl)methyl]-2-pyridyl]-4H-1,3-benzothiazine-4-one] | 187 to 189 °C |
| O=c1nc(-c2cccc(CS(=O)(=O)Cc3ccccc3)n2)sc2ccccc12 [Example 257, 2-[6-[(Benzylsulfonyl)methyl]-2-pyridyl]-4H-1,3-benzothiazine-4-one] | 246 to 248 °C |
| COC(=O)CSCc1cccc(-c2nc(=O)c3ccccc3s2)n1 [Example 258, Methyl ({[6-(4-oxo-4H-1,3-benzothiazin-2-yl)-2-pyridyl]methyl}thio)acetate] | 108 to 110 °C |
| COC(=O)C[S+]([O-])Cc1cccc(-c2nc(=O)c3ccccc3s2)n1 (centres unmarked) [Example 259, Methyl ({[6-(4-oxo-4H-1,3-benzothiazin-2-yl)-2-pyridyl]methyl}sulfinyl)acetate] | 149.5 to 151 °C |
| COC(=O)CS(=O)(=O)Cc1cccc(-c2nc(=O)c3ccccc3s2)n1 [Example 260, Methyl ({[6-(4-oxo-4H-1,3-benzothiazin-2-yl)-2-pyridyl]methyl}sulfonyl)acetate] | 205 to 207 °C |
| C[S+]([O-])c1ccc(-c2nc(=O)c3ccccc3s2)cn1 (centres unmarked) [Example 261, 2-[6-(Methylsulfinyl)-3-pyridyl]-4H-1,3-benzothiazine-4-one] | 195 to 196.5 °C |
| CS(=O)(=O)c1ccc(-c2nc(=O)c3ccccc3s2)cn1 [Example 262, 2-[6-(Methylsulfonyl)-3-pyridyl]-4H-1,3-benzothiazine-4-one] | 205 to 207 °C |
| C[S+]([O-])c1cc(-c2nc(=O)c3ccccc3s2)ccn1 (centres unmarked) [Example 263, 2-[2-(Methylsulfinyl)-4-pyridyl]-4H-1,3-benzothiazine-4-one] | 172.5 to 174 °C |
| CS(=O)(=O)c1cc(-c2nc(=O)c3ccccc3s2)ccn1 [Example 264, 2-[2-(Methylsulfonyl)-4-pyridyl]-4H-1,3-benzothiazine-4-one] | 189.5 to 191.5 °C |
| O=c1nc(-c2cccc(CN3CCN(c4ccc(F)cc4)CC3)n2)sc2ccccc12 [Example 265, 2-(6-{[4-(4-Fluorophenyl)-1-piperazinyl]methyl}-2-pyridyl)-4H-1,3-benzothiazine-4-one] | 156 to 157 °C |
| O=c1nc(-c2cccc(CN3CCCCC3)n2)sc2ccccc12 [Example 266, 2-[6-(1-Piperidinomethyl)-2-pyridyl]-4H-1,3-benzothiazine-4-one] | 162 to 163 °C |
| O=c1nc(-c2cccc(CN3CCC(c4ccccc4)CC3)n2)sc2ccccc12 [Example 267, 2-{6-[(4-Phenyl-1-piperidyl)methyl]-2-pyridyl}-4H-1,3-benzo thiazine-4-one] | 207 to 208 °C |
| O=c1nc(-c2cccc(CN3CCC(Cc4ccccc4)CC3)n2)sc2ccccc12 [Example 268, 2-{6-[(4-Benzyl-1-piperidyl)methyl]-2-pyridyl}-4H-1,3-benzo thiazine-4-one] | 151 to 153 °C |

| SMILES | melting point |
| --- | --- |
| O=c1nc(-c2cccc(Sc3ncccn3)n2)sc2ccccc12 [Example 270, 2-[6-(2-Pyrimidinylthio)-2-pyridyl]-4H-1,3-benzothiazine-4-one] | 245.2 to 245.8 °C |
| Cn1ccnc1Sc1cccc(-c2nc(=O)c3ccccc3s2)n1 [Example 271, 2-{6-[(1-Methyl-1H-imidazol-2-yl)thio]-2-pyridyl}-4H-1,3-benzothiazine-4-one] | 171.9 to 172.3 °C |
| O=c1nc(-c2cccc(CSc3ccccn3)n2)sc2ccccc12 [Example 272, 2-{6-[(2-Pyridylthio)methyl]-2-pyridyl}-4H-1,3-benzothiazine-4-one] | 151.3 to 151.9 °C |
| O=c1nc(-c2cccc(CSc3ccncc3)n2)sc2ccccc12 [Example 273, 2-{6-[(4-pyridylthio)methyl]-2-pyridyl}-4H-1,3-benzothiazine-4-one] | 181.9 to 182.5 °C |
| O=c1nc(-c2cccc(Sc3ccncc3)n2)sc2ccccc12 [Example 274, 2-[6-(4-Pyridylthio)-2-pyridyl]-4H-1,3-benzothiazine-4-one] | 245.2 to 245.8 °C |
| CC(C)(C)OC(=O)CSc1cccc(-c2nc(=O)c3ccccc3s2)n1 [Example 275, tert-Butyl {[6-(4-oxo-4H-1,3-benzothiazin-2-yl)-2-pyridyl]thio}acetate] | 169.5 to 170 °C |
| O=C(O)CSc1cccc(-c2nc(=O)c3ccccc3s2)n1 [Example 276, [6-(4-Oxo-4H-1,3-benzothiazin-2-yl)-2-pyridyl]thioacetic acid] | 258 to 260 °C |
| CCOC(=O)CSc1cccc(-c2nc(=O)c3ccccc3s2)n1 [Example 277, Ethyl {[6-(4-oxo-4H-1,3-benzothiazin-2-yl)-2-pyridyl]thio}acetate] | 124.5 to 125 °C |
| CC(C)(C)OC(=O)C[S+]([O-])c1cccc(-c2nc(=O)c3ccccc3s2)n1 (centres unmarked) [Example 278, tert-Butyl {[6-(4-oxo-4H-1,3-benzothiazin-2-yl)-2-pyridyl]sulfinyl}acetate] | 158.8 to 159.1 °C |
| O=C(O)C[S+]([O-])c1cccc(-c2nc(=O)c3ccccc3s2)n1 (centres unmarked) [Example 279, [6-(4-Oxo-4H-1,3-benzothiazin-2-yl)-2-pyridyl]sulfinylacetic acid] | 186.5 to 188 °C |
| CC(C)(C)OC(=O)CS(=O)(=O)c1cccc(-c2nc(=O)c3ccccc3s2)n1 [Example 280, tert-Butyl {[6-(4-oxo-4H-1,3-benzothiazin-2-yl)-2-pyridyl]sulfonyl}acetate] | 159 to 160 °C |
| O=C(O)CS(=O)(=O)c1cccc(-c2nc(=O)c3ccccc3s2)n1 [Example 281, [6-(4-Oxo-4H-1,3-benzothiazin-2-yl)-2-pyridyl]sulfonylacetic acid] | 192 to 193.5 °C |
| NC(=O)CSc1cccc(-c2nc(=O)c3ccccc3s2)n1 [Example 282] | 256.7 to 257 °C |
| CSc1nccc(-c2nc(=O)c3ccccc3s2)n1 [Example 284, 2-[2-(Methylthio)-6-pyrimidinyl]-4H-1,3-benzothiazine-4-one] | 223.5 to 224 °C |
| C[S+]([O-])c1nccc(-c2nc(=O)c3ccccc3s2)n1 (centres unmarked) [Example 285, 2-[2-(Methylsulfinyl)-6-pyrimidinyl]-4H-1,3-benzothiazine-4-one] | 250.5 to 252 °C |
| CS(=O)(=O)c1nccc(-c2nc(=O)c3ccccc3s2)n1 [Example 286, 2-[2-(Methylsulfonyl)-6-pyrimidinyl]-4H-1,3-benzothiazine-4-one] | 269.5 to 270 °C |
| CSc1cncc(-c2nc(=O)c3ccccc3s2)n1 [Example 287, 2-[6-(Methylthio)-2-pyrazinyl]-4H-1,3-benzothiazine-4-one] | 202.4 to 202.9 °C |
| C[S+]([O-])c1cncc(-c2nc(=O)c3ccccc3s2)n1 (centres unmarked) [Example 288, 2-[6-(Methylsulfinyl)-2-pyrazinyl]-4H-1,3-benzothiazine-4-one] | 228.5 to 230.5 °C |
| CS(=O)(=O)c1cncc(-c2nc(=O)c3ccccc3s2)n1 [Example 289, 2-[6-(Methylsulfonyl)-2-pyrazinyl]-4H-1,3-benzothiazine-4-one] | 232 to 233 °C |
| CN(C)c1cncc(-c2nc(=O)c3ccccc3s2)n1 [Example 290, 2-[6-(Dimethylamino)-2-pyrazinyl]-4H-1-benzothiazine-4-one] | 248 to 249 °C |
| CN(CC(=O)OC(C)(C)C)c1cncc(-c2nc(=O)c3ccccc3s2)n1 [Example 291, tert-Butyl {methyl[6-(4-oxo-4H-1,3-benzothiazin-2-yl)-2-pyrazinyl]amino}acetate] | 189 to 190.5 °C |
| CN(CC(=O)O)c1cncc(-c2nc(=O)c3ccccc3s2)n1 [Example 292, {Methyl[6-(4-oxo-1,3-benzothiazin-2-yl)-2-pyrazinyl]amino}acetic acid] | 283 °C (dec.) |
| CN(CC(=O)OC(C)(C)C)c1nccc(-c2nc(=O)c3ccccc3s2)n1 [Example 293, tert-Butyl {methyl [6-(4-oxo-4H-1,3-benzothiazin-2-yl)-2-pyrimidinyl]amino}acetate] | 186.5 to 188 °C |
